One series has as its target T1, elF4A1 (Homo sapiens, UniProt P60842).
T1 construct: endogenous in cells; host or cells: HeLa
Briefly: Dual luciferase assay for cap dependent translation initiation (eIF4A). Particulars: Biochemical and cell based activity. On the procedure: Dual luciferase assay for Cap-dependent translation initiation was performed in HeLa cells transfected with pFR_HCV_xb. […] After incubation, Dual luciferase reporter assay was performed according to the manufacturer's instruction and the luminescence was measured using a multiplate reader. Data were normalized to cells transfected with the indicated mutant and exposed to DMSO for 24 h. DMSO-treated cells were set as 1. The bars represent mean±SD from 3 independent experiments. The dot plot indicate the value from each experiment.

A further series has as its target T2, KRAS G12V (Homo sapiens, UniProt P01116, G12V).
T2 construct: K, N and HRAS G12V (full length) was cloned with Xho I and Bgl I to LgBit; expressed in transfected cells; host or cells: HeLa
Briefly: NanoBiT assay for RAS activation (KRAS G12V). Particulars: Biochemical and cell based activity. On the procedure: N-terminal LgBiT and C-terminal SmBiT construct was purchased from Promega and K, N and HRAS G12V (full length) was cloned with Xho I and Bgl I to LgBit and CRAF Ras binding domain (1-149) was cloned with EcoRI and Bgl II to SmBit. For transfections, 1 μg or 2 μg of (12 well/6 well) plasmids were transfected into cells with 0.5 mM of PEI reagent in 100 μl or 200 μl PBS. One day after transfection, cells were harvested and seeded into 96 well white plates (Greiner) or 384 well white plate (Greiner). After an additional day the medium was changed to serum free DMEM and the cells were incubated for 2 h with the compounds according to the invention. NanoGlo assay was performed according to the manufacturer's instructions. The luminescence was measured using Tecan infinite (Tecan).

Another series can be described thus: In vitro DMPK: CLi Human. Format: in vitro ADME.

T2 sequence (P01116 1-188 isoform P01116-2 G12V): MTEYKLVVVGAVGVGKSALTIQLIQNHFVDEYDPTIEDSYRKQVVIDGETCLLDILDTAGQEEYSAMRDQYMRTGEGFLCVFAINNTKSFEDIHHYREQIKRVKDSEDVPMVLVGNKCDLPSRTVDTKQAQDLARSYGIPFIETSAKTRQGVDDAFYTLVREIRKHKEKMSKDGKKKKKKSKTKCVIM
T1 sequence (P60842 whole entry): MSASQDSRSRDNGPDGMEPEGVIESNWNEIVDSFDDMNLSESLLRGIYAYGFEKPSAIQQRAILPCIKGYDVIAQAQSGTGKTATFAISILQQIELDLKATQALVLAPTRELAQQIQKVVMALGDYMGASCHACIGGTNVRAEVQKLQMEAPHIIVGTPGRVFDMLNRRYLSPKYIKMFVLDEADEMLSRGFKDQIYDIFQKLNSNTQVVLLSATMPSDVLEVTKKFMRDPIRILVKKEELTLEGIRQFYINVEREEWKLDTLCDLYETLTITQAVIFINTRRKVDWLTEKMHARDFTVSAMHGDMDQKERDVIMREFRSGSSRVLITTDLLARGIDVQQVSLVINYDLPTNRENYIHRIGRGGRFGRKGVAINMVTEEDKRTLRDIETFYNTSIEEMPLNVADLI

Regarding `COc1cc(OC)c2c(c1)O[C@@]1(c3ccc(Cl)cc3)[C@H](c3cccc(F)c3)C[C@H](NC(=O)N3CC4CCC(C3)N4C)[C@@]21O` [Compound 43], the IC50 (in general, the point on the concentration scale where inhibition reaches its midpoint) against elF4A1 is 80 nM; at KRAS G12V, 57 nM.

With `COc1cc(OC)c2c(c1)O[C@@]1(c3ccc(C#N)cc3)[C@H](c3cccc(F)c3)C[C@H](NC(=O)N3CCOCC3)[C@@]21O` [Compound 37], the “CLi Human” value in “In vitro DMPK: CLi Human” came out at 64 µL/min/mg. The concentration for half-maximal inhibition (IC50) on elF4A1 worked out at 24 nM; on KRAS G12V, 19 nM.

With `COc1cc(OC)c2c(c1)O[C@@]1(c3ccc(Cl)cc3)[C@H](c3cccc(F)c3)C[C@H](NC(=O)N3CC(N(C)C)C3)[C@@]21O` [Compound 41], the IC50 against elF4A1 stood at 55 nM; against KRAS G12V it was 50 nM.

As for `CCN(CC)C(=O)N[C@H]1C[C@@H](c2cccc(F)c2)[C@]2(c3ccc(Cl)cc3)Oc3cc(OC)cc(OC)c3[C@]12O` (single isomer, unassigned) [Compound 11], the IC50 turned out to be 75 nM on elF4A1 and 94 nM against KRAS G12V.

For the compound `COc1cc(OC)c2c(c1)O[C@@]1(c3ccc(C#N)cc3)[C@H](c3cccc(F)c3)C[C@H](NC(=O)N3CCC3)[C@@]21O` [Compound 36], the IC50 worked out at 25 nM on elF4A1 and 24 nM at KRAS G12V.

`COc1cc(OC)c2c(c1)O[C@@]1(c3ccc(Cl)cc3)[C@H](c3cccc(F)c3)C[C@H](NC(=O)N3CCOCC3)[C@@]21O` [Compound 19]: the results for the IC50 against elF4A1 and against KRAS G12V were 80 nM and 58 nM, respectively.

Take `COc1cc(OC)c2c(c1)O[C@@]1(c3ccc(C#N)cc3)[C@H](c3cccc(F)c3)C[C@H](NC(=O)N3CC4(COC4)C3)[C@@]21O` [Compound 47]: the IC50 against elF4A1 was determined as 22 nM; at KRAS G12V, 41 nM.

With `COc1cc(OC)c2c(c1)OC1(c3ccc(Cl)cc3)[C@@H](c3cccc(F)c3)CC(NC(=O)N(C)C)C21O` (single isomer, unassigned) [Compound C2, reference compound], the “CLi Human” value in the series “In vitro DMPK: CLi Human” is 290 µL/min/mg. Moreover, the IC50 against elF4A1 stood at 63 nM; at KRAS G12V, 55 nM.

In the case of `COc1cc(OC)c2c(c1)O[C@@]1(c3ccc(C#N)cc3)[C@H](c3cccc(F)c3)C[C@H](NC(=O)N3CCN(C)CC3)[C@@]21O` [Compound 38], the IC50 against elF4A1 and on KRAS G12V was 21 nM throughout.

`COc1cc(OC)c2c(c1)O[C@@]1(c3ccc(Cl)cc3)[C@H](c3cccc(F)c3)C[C@H](NC(=O)N3CCN(C)CC3)[C@@]21O` (single isomer, unassigned) [Compound 2]: the “CLi Human” value in the series “In vitro DMPK: CLi Human” was determined as 5.5 µL/min/mg. The IC50 was 84 nM against elF4A1 and 79 nM against KRAS G12V.

Take `COc1cc(OC)c2c(c1)O[C@@]1(c3ccc(Cl)cc3)[C@H](c3cccc(F)c3)C[C@H](NC(=O)N3CCS(=O)(=O)CC3)[C@@]21O` [Compound 39]: the IC50 was 39 nM on elF4A1 and 32 nM on KRAS G12V.

Consider `COc1cc(OC)c2c(c1)O[C@@]1(c3ccc(Cl)cc3)[C@H](c3cccc(F)c3)C[C@H](NC(=O)NCCO)[C@@]21O` [Compound 42], for which the values for the IC50 at elF4A1 and at KRAS G12V were 54 nM and 48 nM, respectively.

Consider `COc1cc(OC)c2c(c1)O[C@@]1(c3ccc(Cl)cc3)[C@H](c3cccc(F)c3)C[C@H](NC(=O)NC(C)C)[C@@]21O` (single isomer, unassigned) [Compound 8], for which the “CLi Human” value in the series “In vitro DMPK: CLi Human” was found to be 31 µL/min/mg. In addition, the IC50 against elF4A1 came to 120 nM; at KRAS G12V, 78 nM.

For `COc1cc(OC)c2c(c1)O[C@@]1(c3ccc(Cl)cc3)[C@H](c3cccc(F)c3)C[C@H](NC(=O)N3CCC(N(C)C)CC3)[C@@]21O` [Compound 40], the results for the IC50 against elF4A1 and against KRAS G12V were 143 nM and 97 nM, respectively.

Take `COc1cc(OC)c2c(c1)O[C@@]1(c3ccc(Cl)cc3)[C@H](c3cccc(F)c3)C[C@H](NC(=O)N3CCCC3)[C@@]21O` (single isomer, unassigned) [Compound 5]: the IC50 against elF4A1 was found to be 60 nM; against KRAS G12V, 95 nM.

The record behind these values is patent US20250197379A1 (KHR Biotec GmbH, priority 2021, published 2025).
